One compound from patent US12605350B2, “Composition for preventing, ameliorating, or treating disease caused by nitration of tyrosine in proteins comprising tyrosine as effective component” (INDUSTRY-ACADEMIC COOPERATION FOUNDATION GYEONGSANG …, priority 2020, dated 2026) can be followed below.

In this test the target is T1, human recombinant MnSOD (Homo sapiens, UniProt P04179).
T1 sequence (P04179 25-222): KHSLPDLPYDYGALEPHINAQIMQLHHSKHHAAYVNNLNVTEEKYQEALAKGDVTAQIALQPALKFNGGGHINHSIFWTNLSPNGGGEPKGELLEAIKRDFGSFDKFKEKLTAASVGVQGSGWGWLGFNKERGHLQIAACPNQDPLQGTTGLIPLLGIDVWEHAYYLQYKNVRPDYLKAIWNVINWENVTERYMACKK
Briefly: SOD activity of human recombinant MnSOD treated with peroxynitrite. Format: biochemical. As to conditions: human recombinant MnSOD with peroxynitrite (2.1 mM PN), 10 minutes on ice. On the procedure: Peroxynitrite was diluted by 40 times with 0.3 M NaOH, and absorbance at 302 nm was measured. Then, it was quantified by using the molar absorption coefficient of peroxynitrite) (ε302=1670 M^−1 cm^−1).
For the measurement of SOD activity, SOD colorimetric activity kit by ThermoFisher was used. Human recombinant MnSOD within reference SOD range, peptide, and peroxynitrite were admixed with one another, and the reaction was allowed to occur on ice for 10 minutes. To a 96-well plate, 10 μl of reference SOD or the reaction mixture, and 50 μl of a substrate solution provided in the kit were added, and the absorbance at 450 nm was measured. After adding 25μl of xanthine oxidase provided in the kit and allowing the reaction to occur for 20 minutes at room temperature, absorbance at 450 nm was measured. By using the data obtained by subtracting the first-measured absorbance from the second-measured absorbance, SOD activity was obtained.

Regarding `N[C@H](Cc1ccc(O)cc1)C(=O)O` [D-tyrosine], the “MnSOD (SOD) activity” value is recorded as “higher MnSOD activity”.
